Experimental data: article PMC6614805 (2019)

Each compound was assayed on SCA2.1 (DNA, aptamer) CTTACGACCTTAAGTGGGGTTCGGGTGGAGTTTATGGGGTCGTAAG (assay: ITC). Details: 20 mM NaCl, 0.5 mM MgCl2; 10 mM Tris-HCl pH 7.4, 23 °C; pure enantiomer, one-site model.
Compound CCCC(C(=O)c1ccc2c(c1)OCO2)N1CCCC1 (stereo not drawn) has a KD of 3.61 ± 0.12 µM.
CCC[C@H](C(=O)c1ccc2c(c1)OCO2)N1CCCC1 gave a KD of 0.0465 ± 0.0075 µM.

Same assay, conditions: 20 mM NaCl, 0.5 mM MgCl2; 10 mM Tris-HCl pH 7.4, 23 °C; racemate, modified two-site model; site 1 of 2 (one enantiomer)
In the case of CCC(NC)C(=O)c1ccc2c(c1)OCO2 (racemic), the KD1 is reported as 0.16 ± 0.05 µM.
CCCC(C(=O)c1ccc2c(c1)OCO2)N1CCCC1 (racemic) was tested, and the KD1 was 0.0175 ± 0.0164 µM.
With CCCC(C(=O)c1ccccc1)N1CCCC1 (racemic) the KD1 was 0.09 ± 0.02 µM.
For CCNC(C)C(=O)c1ccc2c(c1)OCO2 (racemic), the KD1 was 0.10 ± 0.03 µM.

Each compound was assayed on SCA2.1 (DNA, aptamer) CTTACGACCTTAAGTGGGGTTCGGGTGGAGTTTATGGGGTCGTAAG (assay: absorbance titration at 775 nm). Details: 20 mM NaCl, 0.5 mM MgCl2; 10 mM Tris-HCl pH 7.4, 0.01% Tween 20, 1% DMSO, room temperature; 2 µM Cy7.
Work on CCN1C(=CC=CC=CC=Cc2sc3ccccc3[n+]2CC)Sc2ccccc21 yielded a KD of 1.6 µM.

What follows are compounds tested on SCA2.1 (DNA, aptamer) CTTACGACCTTAAGTGGGGTTCGGGTGGAGTTTATGGGGTCGTAAG (assay: Cy7 displacement, absorbance A670/A775). Details: Cy7 (2 µM) displaced from 3 µM SCA2.1; 50 µM compound.
CCCC(C(=O)c1ccc2ccccc2c1)N1CCCC1 (stereo not drawn) was tested, and the binding was “yes”.
With CCCC(NC)C(=O)c1ccc2c(c1)OCO2 (stereo not drawn) the binding was “yes”.
For CNC(C)C(=O)c1ccc(C)cc1 (stereo not drawn), the binding was “yes”.
CNC(C)C(=O)c1ccc(F)cc1 (stereo not drawn) was tested, and the binding was “yes”.
With CNC(C)C(=O)c1ccc2c(c1)OCO2 (stereo not drawn) the binding was “yes”.
With CNC(C)C(=O)c1cccc(F)c1 (stereo not drawn) the binding was “yes”.
In the case of CNC(C)C(=O)c1ccccc1 (stereo not drawn), the binding is reported as “yes”.
For C[C@H](N)C(=O)c1ccccc1, the binding was “yes”.

Same assay, conditions: Cy7 (2 µM) displaced from 3 µM SCA2.1; highest concentration tested 50 µM
For CC(=O)Nc1ccc(O)cc1, the binding was “no”.
In the case of CCN(CC)CC(=O)Nc1c(C)cccc1C, the binding is reported as “no”.
For CCOC(=O)c1ccc(N)cc1, the binding was “no”.
For CN[C@@H](C)[C@@H](O)c1ccccc1, the binding was “no”.
In the case of Cn1c(=O)c2c(ncn2C)n(C)c1=O, the binding is reported as “no”.
For OC[C@H]1O[C@@](CO)(O[C@H]2O[C@H](CO)[C@@H](O)[C@H](O)[C@H]2O)[C@@H](O)[C@@H]1O, the binding was “no”.
